# Literature values as cited in patent US10016426B2, “Pharmaceutical compositions for substituted quinazolinones” (Resverlogix Corp., priority 2011, dated 2018).
# Legend:
# [1] = test system: HDL-C level; conditions: subjects with low HDL-C; Rubins et al. (1999)
# [2] = following oral administration; Gugler et al. (1975)
intestinal absorption [2],SMILES,increase in the HDL-C level [1] [%],reduction of the CHD risk [1] [%]
–,Cc1ccc(C)c(OCCCC(C)(C)C(=O)O)c1 [gemfibrozil],6,22
less than 1%,O=c1c(O)c(-c2ccc(O)c(O)c2)oc2cc(O)cc(O)c12 [quercetin],–,–
